According to ChEMBL document CHEMBL4765398, “Benzothiophene-2-carboxamide derivatives as SENPs inhibitors with selectivity within SENPs family” (Eur J Med Chem, 2020):

Columns and labels:
[1] = molecular target: T1, Sentrin-specific protease 2 (Homo sapiens, UniProt Q9HC62); assay: Inhibition of recombinant human SNEP2 (365 to 589 residues) expressed in Escherichia coli (DE3) cells using RanGAP-SUMO2 substrate preincubated for 10 mins followed by substrate addition and measured after 25 min by Coomassie blue staining based SDS-PAGE analysis
T1 sequence (Q9HC62 whole entry): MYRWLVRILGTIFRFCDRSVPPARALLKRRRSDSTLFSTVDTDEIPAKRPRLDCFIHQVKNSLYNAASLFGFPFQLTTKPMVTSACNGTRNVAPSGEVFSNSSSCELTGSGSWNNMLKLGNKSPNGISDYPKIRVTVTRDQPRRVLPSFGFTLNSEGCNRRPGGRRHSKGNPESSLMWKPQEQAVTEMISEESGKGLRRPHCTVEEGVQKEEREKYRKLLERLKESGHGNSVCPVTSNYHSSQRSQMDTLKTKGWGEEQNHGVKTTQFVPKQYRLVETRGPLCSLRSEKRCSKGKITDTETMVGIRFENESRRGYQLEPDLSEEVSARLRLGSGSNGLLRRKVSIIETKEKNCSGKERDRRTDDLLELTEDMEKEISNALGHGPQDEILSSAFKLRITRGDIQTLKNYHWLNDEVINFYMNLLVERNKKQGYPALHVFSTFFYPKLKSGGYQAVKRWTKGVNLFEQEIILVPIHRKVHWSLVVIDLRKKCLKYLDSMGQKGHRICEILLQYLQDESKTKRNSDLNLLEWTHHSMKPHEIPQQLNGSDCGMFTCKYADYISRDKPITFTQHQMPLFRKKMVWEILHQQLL

[2] = molecular target: T2, Sentrin-specific protease 5 (Homo sapiens, UniProt Q96HI0); assay: Inhibition of recombinant human SNEP5 (567 to 755 residues) expressed in Escherichia coli (DE3) cells using RanGAP-SUMO2 substrate preincubated for 10 mins followed by substrate addition and measured after 25 min by Coomassie blue staining based SDS-PAGE analysis
T2 sequence (Q96HI0 whole entry): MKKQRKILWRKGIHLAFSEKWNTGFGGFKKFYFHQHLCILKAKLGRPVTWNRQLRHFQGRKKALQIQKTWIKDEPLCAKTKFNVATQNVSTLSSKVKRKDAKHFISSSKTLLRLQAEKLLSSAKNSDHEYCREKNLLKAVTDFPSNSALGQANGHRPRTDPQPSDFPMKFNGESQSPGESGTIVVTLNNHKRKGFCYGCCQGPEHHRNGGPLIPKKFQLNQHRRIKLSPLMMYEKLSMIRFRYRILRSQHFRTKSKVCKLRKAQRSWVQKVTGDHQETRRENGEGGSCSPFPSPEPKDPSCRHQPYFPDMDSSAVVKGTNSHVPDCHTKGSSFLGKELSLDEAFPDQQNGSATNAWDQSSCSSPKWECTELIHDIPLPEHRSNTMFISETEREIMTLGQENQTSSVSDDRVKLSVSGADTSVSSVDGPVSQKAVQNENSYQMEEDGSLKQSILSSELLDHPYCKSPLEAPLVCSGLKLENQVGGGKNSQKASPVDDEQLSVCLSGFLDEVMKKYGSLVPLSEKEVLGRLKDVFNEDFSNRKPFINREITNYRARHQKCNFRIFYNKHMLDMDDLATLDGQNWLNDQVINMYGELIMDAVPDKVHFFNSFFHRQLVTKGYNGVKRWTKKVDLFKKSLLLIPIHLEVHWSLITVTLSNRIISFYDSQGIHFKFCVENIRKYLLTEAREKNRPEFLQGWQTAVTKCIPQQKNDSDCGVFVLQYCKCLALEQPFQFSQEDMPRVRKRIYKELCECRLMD

[3] = molecular target: T3, Sentrin-specific protease 1 (Homo sapiens, UniProt Q9P0U3); assay: Inhibition of recombinant human SNEP1 (419 to 644 residues) expressed in Escherichia coli (DE3) cells using RanGAP-SUMO2 substrate preincubated for 10 mins followed by substrate addition and measured after 25 min by Coomassie blue staining based SDS-PAGE analysis
T3 sequence (Q9P0U3 whole entry): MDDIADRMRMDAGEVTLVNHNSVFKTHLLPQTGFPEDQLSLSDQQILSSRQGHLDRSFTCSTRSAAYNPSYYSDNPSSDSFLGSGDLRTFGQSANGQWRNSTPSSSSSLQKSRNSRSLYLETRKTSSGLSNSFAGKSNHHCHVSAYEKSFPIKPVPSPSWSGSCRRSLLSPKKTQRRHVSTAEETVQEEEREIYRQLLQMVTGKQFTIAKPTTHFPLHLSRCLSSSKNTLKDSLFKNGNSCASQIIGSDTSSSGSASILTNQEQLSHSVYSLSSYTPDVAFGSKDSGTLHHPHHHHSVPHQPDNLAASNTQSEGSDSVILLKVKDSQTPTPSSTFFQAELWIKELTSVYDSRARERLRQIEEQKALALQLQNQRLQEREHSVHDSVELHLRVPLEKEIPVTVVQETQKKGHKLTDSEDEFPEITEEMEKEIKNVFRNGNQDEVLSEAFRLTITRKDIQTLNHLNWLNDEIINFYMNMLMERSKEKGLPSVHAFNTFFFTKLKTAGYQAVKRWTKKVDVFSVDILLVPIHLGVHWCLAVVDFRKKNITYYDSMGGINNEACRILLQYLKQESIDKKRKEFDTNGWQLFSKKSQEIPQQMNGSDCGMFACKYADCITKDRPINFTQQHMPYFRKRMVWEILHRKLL

[4] = Inhibition of recombinant human SNEP1 Q597A mutant (419 to 644 residues) expressed in Escherichia coli (DE3) cells using RanGAP-SUMO2 substrate preincubated for 10 mins followed by substrate addition and measured after 25 min by Coomassie blue staining based SDS-PAGE analysis
[5] = Inhibition of recombinant human SNEP1 H529A mutant (419 to 644 residues) expressed in Escherichia coli (DE3) cells using RanGAP-SUMO2 substrate preincubated for 10 mins followed by substrate addition and measured after 25 min by Coomassie blue staining based SDS-PAGE analysis
[6] = Inhibition of recombinant human SNEP1 W465A mutant (419 to 644 residues) expressed in Escherichia coli (DE3) cells using RanGAP-SUMO2 substrate preincubated for 10 mins followed by substrate addition and measured after 25 min by Coomassie blue staining based SDS-PAGE analysis
[7] = Inhibition of recombinant human SNEP1 K455A mutant (419 to 644 residues) expressed in Escherichia coli (DE3) cells using RanGAP-SUMO2 substrate preincubated for 10 mins followed by substrate addition and measured after 25 min by Coomassie blue staining based SDS-PAGE analysis
[8] = Inhibition of recombinant human SNEP1 F496A mutant (419 to 644 residues) expressed in Escherichia coli (DE3) cells using RanGAP-SUMO2 substrate preincubated for 10 mins followed by substrate addition and measured after 25 min by Coomassie blue staining based SDS-PAGE analysis

Row | SMILES | IC50 [1] | IC50 [2] | IC50 [3] | IC50 [4] | IC50 [5] | IC50 [6] | IC50 [7] | IC50 [8]
1 | CC(=O)Nc1cccc(CNC(=O)c2sc3ccccc3c2OCc2ccccc2)c1 | 52.9 µM | 28.9 µM | 25.4 µM |  |  |  |  | 
2 | CCOC(=O)CNc1ccc2sc(C(=O)NCc3cccc(NC(=O)c4cccs4)c3)c(OCc3ccccc3)c2c1 |  |  |  | 22.4 µM | 21.2 µM | 40.7 µM | 3.42 µM | 5.92 µM
3 | Nc1ccc(C(=O)Nc2cccc(CNC(=O)c3sc4ccccc4c3OCc3ccccc3)c2)cc1 |  | > 100 µM |  |  |  |  |  | 
